{
  "source": "paper PMC12748958",
  "about": "(Nature Communications, 2025)",
  "target": "T1, PsiR-M2 (Agrobacterium fabrum, UniProt A9CH24, R109G/V134A)",
  "T1 sequence (A9CH24 1-359 R109G/V134A)": "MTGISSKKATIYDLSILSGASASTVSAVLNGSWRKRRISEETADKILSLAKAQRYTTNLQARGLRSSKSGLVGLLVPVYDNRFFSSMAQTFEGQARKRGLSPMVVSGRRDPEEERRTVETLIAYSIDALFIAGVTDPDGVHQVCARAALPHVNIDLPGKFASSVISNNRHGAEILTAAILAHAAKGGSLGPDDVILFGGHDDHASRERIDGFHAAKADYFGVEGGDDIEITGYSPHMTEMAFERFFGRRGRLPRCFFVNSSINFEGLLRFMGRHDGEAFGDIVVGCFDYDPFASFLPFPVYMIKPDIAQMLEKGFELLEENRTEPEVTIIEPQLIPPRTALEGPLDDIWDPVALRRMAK",
  "test": "microscale thermophoresis",
  "type": "binding",
  "data": [
    {"smiles": "O=C(CO)[C@H](O)[C@H](O)[C@H](O)CO", "note": "[D-allulose]", "values": [
      {"measurement": "microscale thermophoresis (MST) on purified protein", "value": "After purifying PsiR-WT, M2, and M4 from E. coli BL21(DE3) via His-tag affinity chromatography"}
    ]}
  ]
}
